From PubChem BioAssay AID1918994 (Molecular Pharmacology Branch, DTP, NCI, 2023)

Test system: 292921-168-R-J2-PDC complex spheroid growth
Test: Anticancer human tumor 292921-168-R-J2-PDC patient-derived pancreatic carcinoma cell line growth inhibition [AhR]
Conditions: for IC50: curve of first compound; for viability, T/C: stronger effect = lower value
How it was run: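 Complex tumor spheroids co-cultured with HUVEC and human MSC stroma; AhR antagonists tested in combination with standard-of-care and investigational agents. Top concentration at or near clinical Cmax (else 10 microM), half-log dilutions; growth expressed as percent test/control.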

[1] = second compound 0.1 µM, first compound 0.0316 µM
[2] = second compound 0.1 µM, first compound 0.1 µM
[3] = second compound 0.1 µM, first compound 0.316 µM
[4] = second compound 0.1 µM, first compound 1 µM
[5] = second compound 0.1 µM, first compound 3.16 µM
[6] = second compound 0.1 µM, first compound 10 µM
[7] = second compound 0.316 µM, first compound 0.0316 µM
[8] = second compound 0.316 µM, first compound 0.1 µM
[9] = second compound 0.316 µM, first compound 0.316 µM
[10] = second compound 0.316 µM, first compound 1 µM
[11] = second compound 0.316 µM, first compound 3.16 µM
[12] = second compound 0.316 µM, first compound 10 µM
[13] = second compound 1 µM, first compound 0.0316 µM
[14] = second compound 1 µM, first compound 0.1 µM
[15] = second compound 1 µM, first compound 0.316 µM
[16] = second compound 1 µM, first compound 1 µM
[17] = second compound 1 µM, first compound 3.16 µM
[18] = second compound 1 µM, first compound 10 µM
[19] = second compound 3.16 µM, first compound 0.0316 µM
[20] = second compound 3.16 µM, first compound 0.1 µM
[21] = second compound 3.16 µM, first compound 0.316 µM
[22] = second compound 3.16 µM, first compound 1 µM
[23] = second compound 3.16 µM, first compound 3.16 µM
[24] = second compound 3.16 µM, first compound 10 µM
[25] = second compound 10 µM, first compound 0.0316 µM
[26] = second compound 10 µM, first compound 0.1 µM
[27] = second compound 10 µM, first compound 0.316 µM
[28] = second compound 10 µM, first compound 1 µM
[29] = second compound 10 µM, first compound 3.16 µM
[30] = second compound 10 µM, first compound 10 µM
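Note: spheroids exposed to compounds for seven days after three days of growth.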

Row | IC50 (second compound 0.1 µM) [nM] | IC50 (second compound 0.316 µM) [nM] | IC50 (second compound 1 µM) [nM] | IC50 (second compound 3.16 µM) [nM] | IC50 (second compound 10 µM) [nM] | SMILES | viability, T/C [1] [%] | viability, T/C [2] [%] | viability, T/C [3] [%] | viability, T/C [4] [%] | viability, T/C [5] [%] | viability, T/C [6] [%] | viability, T/C [7] [%] | viability, T/C [8] [%] | viability, T/C [9] [%] | viability, T/C [13] [%] | viability, T/C [14] [%] | viability, T/C [19] [%] | viability, T/C [20] [%] | viability, T/C [25] [%] | viability, T/C [26] [%] | also measured
1 | > 10000 | > 10000 | > 10000 | > 10000 | > 10000 | CC(C)c1c(-c2ccccc2)nc2c(C#N)c[nH]n2c1=O + CC(CO)NC(=O)c1cc(-c2ccc(Cl)cc2)nn(-c2cnn(C)c2)c1=O | 104 | 105 | 104 | 105 | 109 | 101 | 103 | 102 | 99.6 | 109 | 102 | 86.8 | 91.9 | 69.7 | 67.3 | viability, T/C [10]: 96%; viability, T/C [11]: 101%; viability, T/C [12]: 89.5%; viability, T/C [15]: 104%; viability, T/C [16]: 97.1%; viability, T/C [17]: 94.9%; viability, T/C [18]: 99.6%; viability, T/C [21]: 94.1%; viability, T/C [22]: 89.8%; viability, T/C [23]: 80.8%; viability, T/C [24]: 84.2%; viability, T/C [27]: 71.2%; viability, T/C [28]: 63.8%; viability, T/C [29]: 62.6%; viability, T/C [30]: 68.5%
2 | 22.9 | 18.6 | 18.5 | 13.9 | 12.7 | CC[C@@]1(O)C(=O)OCc2c1cc1n(c2=O)Cc2cc3c(CN(C)C)c(O)ccc3nc2-1 + Cc1ccccc1N=Nc1ccc(NC(=O)c2ccnn2C)c(C)c1 | 38.7 | 16.8 |  |  |  |  | 36.2 | 18.6 |  | 39.1 | 15.6 | 32.8 | 14.1 | 28.9 | 16.2 | viability, T/C (second compound 0.1 µM, first compound 0.000316 µM): 90.9%; viability, T/C (second compound 0.1 µM, first compound 0.001 µM): 90.8%; viability, T/C (second compound 0.1 µM, first compound 0.00316 µM): 82.5%; viability, T/C (second compound 0.1 µM, first compound 0.01 µM): 79.5%; viability, T/C (second compound 0.316 µM, first compound 0.000316 µM): 82.9%; viability, T/C (second compound 0.316 µM, first compound 0.001 µM): 92.5%; viability, T/C (second compound 0.316 µM, first compound 0.00316 µM): 81.2%; viability, T/C (second compound 0.316 µM, first compound 0.01 µM): 66.2%; viability, T/C (second compound 1 µM, first compound 0.000316 µM): 86.6%; viability, T/C (second compound 1 µM, first compound 0.001 µM): 88%; viability, T/C (second compound 1 µM, first compound 0.00316 µM): 76.9%; viability, T/C (second compound 1 µM, first compound 0.01 µM): 62.9%; viability, T/C (second compound 3.16 µM, first compound 0.000316 µM): 76%; viability, T/C (second compound 3.16 µM, first compound 0.001 µM): 70.4%; viability, T/C (second compound 3.16 µM, first compound 0.00316 µM): 67.1%; viability, T/C (second compound 3.16 µM, first compound 0.01 µM): 58.2%; viability, T/C (second compound 10 µM, first compound 0.000316 µM): 54.4%; viability, T/C (second compound 10 µM, first compound 0.001 µM): 61.1%; viability, T/C (second compound 10 µM, first compound 0.00316 µM): 52.6%; viability, T/C (second compound 10 µM, first compound 0.01 µM): 55.6%
3 | 396 | 409 | 355 | 181 | 105 | COc1cc(C2c3cc4c(cc3C(OC3OC5COC(C)OC5C(O)C3O)C3COC(=O)C23)OCO4)cc(OC)c1O (stereo not given) + Cc1ccccc1N=Nc1ccc(NC(=O)c2ccnn2C)c(C)c1 | 92.5 | 85.8 | 51.6 | 30.8 | 18 | 10.8 | 86.3 | 71 | 58.7 | 75.6 | 72.2 | 63.4 | 60.8 | 60.8 | 52.7 | viability, T/C [10]: 29.9%; viability, T/C [11]: 14.8%; viability, T/C [12]: 11.7%; viability, T/C [15]: 52.3%; viability, T/C [16]: 26.3%; viability, T/C [17]: 19.2%; viability, T/C [18]: 10.9%; viability, T/C [21]: 40.5%; viability, T/C [22]: 25.5%; viability, T/C [23]: 16.4%; viability, T/C [24]: 9.21%; viability, T/C [27]: 27.2%; viability, T/C [28]: 23.3%; viability, T/C [29]: 18.9%; viability, T/C [30]: 11.1%
